Values joined by “and” are separate entries in the source; they are usually repeats but may differ in a detail not shown here. Equal values may be shown once. Where a name gives a salt, the structure may show the parent alone.

Data on 18 compounds can be found in patent publication US20060111396A1, “4-Phenyl substituted tetrahydroisoquinolines and use thereof to block reuptake of norepinephrine, dopamine and serotonin” (AMR Technology, Inc., priority 2004, published 2006).

For the first data set, the system named is dopamine transporter protein over the norepinephrine transporter protein. Particulars: selectivity for dopamine transporter protein over norepinephrine transporter protein; cited from earlier work.
Turning to `COC(=O)C(c1ccccc1)C1CCCCN1` (stereo not drawn) [Methylphenidate], the “DAT/NET Ki ratio” value is reported as 0.1.

Tested on in a further data set: not given
Settings: not given
With `CN1Cc2cc(C(F)(F)F)ccc2C(c2ccccc2)C1` (stereo not drawn), the melting point lay within 257 to 275 °C.

Turning to `Cc1ccc2c(c1)C(C)N(C)CC2c1ccccc1` (stereo not drawn), the melting point was 87 to 89 °C.

`FCc1ccc2c(c1CF)CN(CF)CC2c1ccccc1` (stereo not drawn) yielded a melting point of 108 to 113 °C.

With `Cc1c(F)ccc2c1CN(C)CC2c1ccccc1` (stereo not drawn), the melting point was in the range of 185 to 186 °C.

`COc1c(C)ccc2c1CN(C)CC2c1ccccc1` (stereo not drawn): the melting point fell in the range of 130 to 131 °C.

The compound `Cc1ccc2c(c1O)CN(C)CC2c1ccccc1` (stereo not drawn) gave a melting point of 260 to 261 °C.

Consider `CN1Cc2cc(OC(F)(F)F)ccc2C(c2ccccc2)C1` (stereo not drawn), for which the melting point is 150 to 151 °C (dec.).

With `CN1Cc2cc(Oc3ccccc3)ccc2C(c2ccccc2)C1` (stereo not drawn), the melting point is 175 to 176 °C (dec.).

Regarding `CN1Cc2cc(OCc3ccccc3)ccc2C(c2ccccc2)C1` (stereo not drawn), the melting point lay in the range of 155 to 156 °C.

`Cc1ccc2c(c1)CN(C)CC2c1ccc(F)c(C)c1` (stereo not drawn) returned a melting point of 174 to 175 °C.

`CNCc1cccc2c1CN(C)CC2c1ccccc1` (stereo not drawn) gave a melting point of 278 to 282 °C.

The compound `CN1Cc2c(CO)cccc2C(c2ccccc2)C1` (stereo not drawn) showed a melting point of 144 to 146 °C.

For the compound `CN1Cc2ccccc2C(c2cc(F)cc(F)c2)C1` (stereo not drawn) (as salt: HCl), the melting point was 230 to 233 °C and 230 to 235 °C.

Consider `Cc1cc(F)c2c(c1)C(C)N(C)C(F)C2c1ccccc1` (stereo not drawn) (as salt: HCl), for which the melting point was 194 to 197 °C (dec.).

In the case of `CNCc1ccc2c(c1F)CN(C)CC2c1ccccc1` (stereo not drawn) (as salt: HCl), the melting point lay within 185 to 205 °C.

On to `CN1Cc2cc(CO)ccc2C(c2ccccc2)C1` (stereo not drawn) (as salt: HCl), for which the melting point is 237 to 240 °C (dec.).

Compound `Cc1ccc2c(c1F)CN(C)CC2c1ccccc1` (stereo not drawn) (as salt: hydrochloride) displayed a melting point of 215 to 216 °C.

The melting point is the temperature of the solid-liquid transition.
